In this experiment the target is T1, sGC α1/β1 heterodimer stably expressed in CHO-K1 cell line (CHO-K1/sGC) (Homo sapiens, UniProt Q02108+Q02153).
T1 construct: expressed in transfected cells
T1 sequence (Q02108 1-690): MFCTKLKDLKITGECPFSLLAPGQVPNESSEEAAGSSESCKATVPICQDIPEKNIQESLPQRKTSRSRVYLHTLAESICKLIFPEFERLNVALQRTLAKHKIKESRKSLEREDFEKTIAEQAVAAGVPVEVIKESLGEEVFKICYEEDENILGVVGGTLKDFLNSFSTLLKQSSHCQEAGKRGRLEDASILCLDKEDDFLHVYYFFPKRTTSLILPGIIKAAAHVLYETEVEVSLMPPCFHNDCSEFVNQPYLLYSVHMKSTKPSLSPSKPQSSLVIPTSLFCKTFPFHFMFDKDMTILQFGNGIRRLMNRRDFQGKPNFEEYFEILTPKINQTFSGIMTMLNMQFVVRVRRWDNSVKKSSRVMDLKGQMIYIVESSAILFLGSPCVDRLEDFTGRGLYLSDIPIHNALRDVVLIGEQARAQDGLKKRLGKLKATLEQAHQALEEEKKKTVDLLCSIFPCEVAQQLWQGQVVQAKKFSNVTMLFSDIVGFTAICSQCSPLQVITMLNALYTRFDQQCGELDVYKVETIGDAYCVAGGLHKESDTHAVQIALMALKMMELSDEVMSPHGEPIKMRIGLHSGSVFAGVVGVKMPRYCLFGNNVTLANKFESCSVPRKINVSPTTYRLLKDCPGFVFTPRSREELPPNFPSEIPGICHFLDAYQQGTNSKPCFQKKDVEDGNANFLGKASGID
T1 sequence (Q02153 1-619): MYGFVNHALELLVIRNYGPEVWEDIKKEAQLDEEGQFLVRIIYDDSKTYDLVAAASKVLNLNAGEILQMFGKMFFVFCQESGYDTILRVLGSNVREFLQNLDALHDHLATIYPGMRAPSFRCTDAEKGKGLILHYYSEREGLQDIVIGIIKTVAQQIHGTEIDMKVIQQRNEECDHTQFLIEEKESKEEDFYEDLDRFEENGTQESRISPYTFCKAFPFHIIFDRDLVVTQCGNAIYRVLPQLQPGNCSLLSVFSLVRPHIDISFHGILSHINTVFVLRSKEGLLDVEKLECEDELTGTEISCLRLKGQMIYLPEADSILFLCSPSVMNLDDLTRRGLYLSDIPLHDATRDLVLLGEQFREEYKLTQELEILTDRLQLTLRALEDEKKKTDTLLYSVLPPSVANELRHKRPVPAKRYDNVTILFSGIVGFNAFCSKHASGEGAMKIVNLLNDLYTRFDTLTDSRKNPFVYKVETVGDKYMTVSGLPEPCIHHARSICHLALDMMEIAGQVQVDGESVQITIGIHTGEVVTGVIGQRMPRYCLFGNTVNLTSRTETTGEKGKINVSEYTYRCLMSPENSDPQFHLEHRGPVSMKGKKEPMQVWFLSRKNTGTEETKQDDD
Briefly: Cell-based sGC Functional Assay (CASA Assay), cGMP generation. The following applies: CHO-K1/sGC cells, 1 hr at 37° C., cGMP by HTRF, presence or absence of 1 μM DETA-NO not given; for EC50: 4P fit, read-out: IP (nM) (inflection point); for Emax: read-out: % Act. (percent activation relative to maximum cGMP production of Compound A = 100%). In a few lines:
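Readout is HTRF cGMP in lysates, normalised to the maximal response of reference sGC activator Compound A (100%), with a 4P fit giving IP and fold induction. Cells were CHO-K1/sGC (human α1/β1) in EBSS buffer with IBMX, incubated 1 hr at 37° C with compound. Run with and without 1 μM DETA-NO; final DMSO 2.5%.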
For orientation: In TR-FRET formats the signal depends on donor and acceptor labels being close together.

Each structure is given as a SMILES string.

`CC1(c2ccc(C(F)F)cn2)C(=O)Nc2nc(-c3cn4ncnc4c(CCCC(F)(F)F)n3)nc(N)c21` (stereo not drawn) [Example 43B, 4-amino-5-(5-(difluoromethyl)pyridin-2-yl)-5-methyl-2-(8-(4,4,4-trifluorobutyl)-[1,2,4]triazolo[1,5-a]pyrazin-6-yl)-5H-pyrrolo[2,3-d]pyrimidin-6(7H)-one]: the EC50 was found to be 45.6 nM. Still for that read-out and setting: next, `CC1(c2ccc(F)c(F)c2)C(=O)Nc2nc(-c3cn4ncnc4c(CCCC(F)(F)F)n3)nc(O)c21` (stereo not drawn) [Example 146B, 5-(3,4-difluorophenyl)-4-hydroxy-5-methyl-2-(8-(4,4,4-trifluorobutyl)-[1,2,4]triazolo[1,5-a]pyrazin-6-yl)-5H-pyrrolo[2,3-d]pyrimidin-6(7H)-one]: 45.5 nM; `O=C1Nc2nc(-c3cn4ncnc4c(CCCC(F)(F)F)n3)nc(O)c2C1(c1ccc(C(F)(F)F)cc1)C1CC1` (stereo not drawn) [Example 144A, 5-cyclopropyl-4-hydroxy-2-(8-(4,4,4-trifluorobutyl)-[1,2,4]triazolo[1,5-a]pyrazin-6-yl)-5-(4-(trifluoromethyl)phenyl)-5H-pyrrolo[2,3-d]pyrimidin-6(7H)-one]: 1300 nM.

Regarding `CC1(c2ccc(C#N)cn2)C(=O)Nc2nc(-c3cn4ncnc4c(CCC(F)(F)C(F)(F)F)n3)nc(N)c21` (stereo not drawn) [Example 18A, 6-(4-amino-5-methyl-6-oxo-2-(8-(3,3,4,4,4-pentafluorobutyl)-[1,2,4]triazolo[1,5-a]pyrazin-6-yl)-6,7-dihydro-5H-pyrrolo[2,3-d]pyrimidin-5-yl)nicotinonitrile], the EC50 came out at 38.6 nM. Take `CC(C)Cc1nc(-c2nc(N)c3c(n2)NC(=O)[C@@]3(C)c2ccc(F)cc2)cn2ncnc12` [Example 73A, (S)-4-amino-5-(4-fluorophenyl)-2-(8-isobutyl-[1,2,4]triazolo[1,5-a]pyrazin-6-yl)-5-methyl-5,7-dihydro-6H-pyrrolo[2,3-d]pyrimidin-6-one]: the EC50 was found to be 44.1 nM.

In the case of `CCCCc1nc(-c2nc(O)c3c(n2)NC(=O)C3(C)c2ccc(C(F)(F)F)cn2)cn2ncnc12` (stereo not drawn) [Example 159B, 2-(8-butyl-[1,2,4]triazolo[1,5-a]pyrazin-6-yl)-4-hydroxy-5-methyl-5-(5-(trifluoromethyl)pyridin-2-yl)-5H-pyrrolo[2,3-d]pyrimidin-6(7H)-one], the EC50 was determined as 209 nM.

As to `CC1(c2ccc(F)c(F)c2)C(=O)Nc2nc(-c3cn4ncnc4c(CCC(F)(F)F)n3)nc(N)c21` (stereo not drawn) [Example 84B, 4-amino-5-(3,4-difluorophenyl)-5-methyl-2-(8-(3,3,3-trifluoropropyl)-[1,2,4]triazolo[1,5-a]pyrazin-6-yl)-5H-pyrrolo[2,3-d]pyrimidin-6(7H)-one], the EC50 came to 55.7 nM. Take `C[C@@]1(c2ccc(F)cc2)C(=O)Nc2nc(-c3cn4ncnc4c(Cc4ccc(F)cc4)n3)nc(N)c21` [Example 85B, (S)-4-amino-2-(8-(4-fluorobenzyl)-[1,2,4]triazolo[1,5-a]pyrazin-6-yl)-5-(4-fluorophenyl)-5-methyl-5H-pyrrolo[2,3-d]pyrimidin-6(7H)-one]: the EC50 was 10.6 nM. Regarding `CCCCc1nc(-c2nc(N)c3c(n2)NC(=O)C3(C)c2ccc(Cl)c(F)c2)cn2ncnc12` (stereo not drawn) [Example 62B, 4-amino-2-(8-butyl-[1,2,4]triazolo[1,5-a]pyrazin-6-yl)-5-(4-chloro-3-fluorophenyl)-5-methyl-5H-pyrrolo[2,3-d]pyrimidin-6(7H)-one], the EC50 came out at 51 nM. In the case of `Cc1nc(C2(C)C(=O)Nc3nc(-c4cn5ncnc5c(CCCC(F)(F)F)n4)nc(N)c32)ccc1C(F)(F)F` (racemic) [Example 49B, 4-amino-5-methyl-5-(6-methyl-5-(trifluoromethyl)pyridin-2-yl)-2-(8-(4,4,4-trifluorobutyl)-[1,2,4]triazolo[1,5-a]pyrazin-6-yl)-5H-pyrrolo[2,3-d]pyrimidin-6(7H)-one], the EC50 came out at 595 nM. For `CC1(c2ccc(Cl)cn2)C(=O)Nc2nc(-c3cn4ncnc4c(CCC(F)(F)F)n3)nc(N)c21` (stereo not drawn) [Example 79A, 4-amino-5-(5-chloropyridin-2-yl)-5-methyl-2-(8-(3,3,3-trifluoropropyl)-[1,2,4]triazolo[1,5-a]pyrazin-6-yl)-5H-pyrrolo[2,3-d]pyrimidin-6(7H)-one], the EC50 was 325 nM. Same read-out and setting: next, `CC1(c2ccc(C3CC3)nc2)C(=O)Nc2nc(-c3cn4ncnc4c(CCC(F)(F)C(F)(F)F)n3)nc(N)c21` (stereo not drawn) [Example 13B, 4-amino-5-(6-cyclopropylpyridin-3-yl)-5-methyl-2-(8-(3,3,4,4,4-pentafluorobutyl)-[1,2,4]triazolo[1,5-a]pyrazin-6-yl)-5H-pyrrolo[2,3-d]pyrimidin-6(7H)-one]: 80.6 nM; `CC1(c2ccccn2)C(=O)Nc2nc(-c3cn4ncnc4c(CCC(F)(F)C(F)(F)F)n3)nc(O)c21` (stereo not drawn) [Example 127B, 4-hydroxy-5-methyl-2-(8-(3,3,4,4,4-pentafluorobutyl)-[1,2,4]triazolo[1,5-a]pyrazin-6-yl)-5-(pyridin-2-yl)-5H-pyrrolo[2,3-d]pyrimidin-6(7H)-one]: 1260 nM.

Take `CC1(c2ccc(C(F)(F)F)cc2)C(=O)Nc2nc(-c3cn4ncnc4c(CCCC(F)(F)F)n3)nc(O)c21` (stereo not drawn) [Example 137B, 4-hydroxy-5-methyl-2-(8-(4,4,4-trifluorobutyl)-[1,2,4]triazolo[1,5-a]pyrazin-6-yl)-5-(4-(trifluoromethyl)phenyl)-5H-pyrrolo[2,3-d]pyrimidin-6(7H)-one]: the EC50 came out at 597 nM.

`CC1(c2cccc(F)c2)C(=O)Nc2nc(-c3cn4ncnc4c(CCC(F)(F)C(F)(F)F)n3)nc(N)c21` (stereo not drawn) [Example 14B, 4-amino-5-(3-fluorophenyl)-5-methyl-2 (8-(3,3,4,4,4-pentafluorobutyl)-[1,2,4]triazolo[1,5-a]pyrazin-6-yl)-5H-pyrrolo[2,3-d]pyrimidin-6(7H)-one]: the EC50 was found to be 5.5 nM and the Emax was 90%. In the case of `CCCc1nc(-c2nc(N)c3c(n2)NC(=O)C3(c2ccc(Cl)cn2)C2CC2)cn2ncnc12` (stereo not drawn) [Example 57A, 4-amino-5-(5-chloropyridin-2-yl)-5-cyclopropyl-2-(8-propyl-[1,2,4]triazolo[1,5-a]pyrazin-6-yl)-5H-pyrrolo[2,3-d]pynmidin-6(7H)-one], the EC50 worked out at 577 nM.

`CCCCc1nc(-c2nc(O)c3c(n2)NC(=O)[C@@]3(C)c2ccc(F)cc2)cn2ncnc12` [Example 154A, (S)-2-(8-butyl-[1,2,4]triazolo[1,5-a]pyrazin-6-yl)-5-(4-fluorophenyl)-4-hydroxy-5-methyl-5,7-dihydro-6H-pyrrolo[2,3-d]pyrimidin-6-one]: the EC50 came out at 27.2 nM and the Emax is 100%. `CC1(c2ccc(C(F)(F)F)cn2)C(=O)Nc2nc(-c3cn4ncnc4c(CCC(F)(F)F)n3)nc(N)c21` (stereo not drawn) [Example 78B, 4-amino-5-methyl-5-(5-(tritluoromethyl)pyridin-2-yl)-2-(8-(3,3,3-trifluoropropyl)-[1,2,4]triazolo[1,5-d]pyrazin-6-yl)-5H-pyrrolo[2,3-d]pyrimidin-6(7H)-one]: the EC50 came out at 550 nM. Consider `CC1(c2ccc(Cl)c(F)c2)C(=O)Nc2nc(-c3cn4ncnc4c(CCC(F)(F)F)n3)nc(O)c21` (stereo not drawn) [Example 153B, 5-(4-chloro-3-fluorophenyl)-4-hydroxy-5-methyl-2-(8-(3,3,3-trifluoropropyl)-[1,2,4]triazolo[1,5-a]pyrazin-6-yl)-5H-pyrrolo[2,3-d]pyrimidin-6(7H)-one], for which the EC50 worked out at 310 nM.
